In patent US12264185B2, “Stabilized BCL9 peptides for treatment of aberrant Wnt signaling” (WntRx Pharmaceuticals Inc., priority 2015, dated 2025):
Where “and” joins values, the source holds several entries; their conditions need not be identical. Identical values can stand only once. Like-named read-outs stand apart in the source and are kept apart here.

How the values were obtained:
[1] = test system: PI3K/AKT/FOXO; experiment: PI3K/AKT/FOXO transcription assay (TREx FOXO3-DBE-bla HeLa cell line); type: cell-based
Excerpt: In these assays, the trifluoroacetic salt form of WX-024 was used.

[2] = Preclinical summary of multiple animal models; type: in vivo
Excerpt: The in vivo efficacy of WX-024 was confirmed in multiple animal models.

[3] = in vivo; settings: female, balb/c, mouse, ip
[4] = Pharmacokinetics in male ICR mice; settings: mouse, plasma, 5 mg/kg
Description: The tail vein was used for i.v. injections. […] Following injections, blood samples were obtained via the retro-orbital vein at 5 min, 1, 2, 4, 6, 8, 12, and 24 hours postdose. Plasma was obtained from the blood samples following mixing with sodium heparin and centrifugation.
LC analysis was done using an Agilent 100 HPLC. MS analysis was done using an AB Sciex API 4000. Calibration standards were prepared by serial dilution.
The maximum observed concentration (Cmax), terminal half-life (T1/2), total body clearance (CL), volume of distribution (Vz), area under the curve from the time of dosing to the last measurable concentration (AUC0-t), area under the curve from the time of dosing extrapolated to infinity (AUC0-inf), and bioavailability were calculated using noncompartmental analysis modules in the FDA-certified pharmacokinetic program WinNonlin Professional v5.2 (Pharsight).
Briefly, the mice were administered 1 mg/kg or 5 mg/kg intravenously, or 5 mg/kg intraperitoneally. Blood samples were collected at 15 min, 1, 2, 3, 6, 8, 12, and 24 hours post administration.

`CC[C@H](C)[C@@H]1NC(=O)[C@@](C)(NC(=O)[C@H](CCCNC(=N)N)NC(=O)[C@H](CC(C)C)NC(=O)[C@@H](NC(=O)[C@H](CCC(N)=O)NC(=O)[C@H](CC(C)C)NC(C)=O)[C@@H](C)O)CCCC=CCCC[C@@](C)(C(=O)N[C@@H](CC(C)C)C(=O)N[C@@H](Cc2ccc3ccccc3c2)C(N)=O)NC(=O)[C@H](CCCNC(=N)N)NC(=O)[C@H](CCC(N)=O)NC1=O` [WX-024, LQTLRXaa1IQRXaa2L] showed an IC50 ([1]; Example 4.5, read-out: IC50, PI3K/AKT/FOXO transcription assay) of over 10000 nM, an IC50 ([1]; TREx FOXO3-DBE-bla HeLa, Insulin stimulation, trifluoroacetic salt form, read-out: IC50 (nM), PI3K/AKT/FOXO3 pathway) of over 1000 nM and an IC50 ([1]; summary, Example 6, read-out: IC50, PI3K/AKT/FOXO3 reporter assay) of over 100 nM. For the same molecule, the drug-related toxicity ([2]; animals chronically dosed) was “no particular drug-related toxicity was observed”, the “average tumor growth inhibition rate” value ([2]; multiple animal models, administered for 3-6 weeks) was 70-80% and the AUC(0-inf) ([3]; 10 mg/kg) was 41.1 µg·h/mL. For the same molecule, the AUC(0-t) ([3]; 10 mg/kg) was 37.8 µg·h/mL, the Tmax ([3]; 10 mg/kg) was 2 h and the AUC(0-inf) ([3]; 15 mg/kg) was 109 µg·h/mL. For the same molecule, the AUC(0-t) ([3]; 15 mg/kg) was 107 µg·h/mL, the Cmax ([3]; 15 mg/kg) was 8750 ng/mL and the Tmax ([3]; 15 mg/kg) was 3.33 h. For the same molecule, the AUC(0-inf) ([3]; 20 mg/kg) was 161 µg·h/mL, the AUC(0-t) ([3]; 20 mg/kg) was 160 µg·h/mL and the Cmax ([3]; 20 mg/kg) was 13700 ng/mL. The Tmax ([3]; 20 mg/kg) was 4 h, the bioavailability ([4]; ip) was 73.6% and the Cmax ([4]; iv) was 47400 ng/mL and > 30 µM.
